Here are results for 2 molecules from patent publication US12296017B2, “Bioorthogonal compositions” (TAMBO, INC., priority 2017, dated 2025).

Data set [1] has as its system MRSA bacteria. In words: In vitro calorimetry (MRSA) in presence and absence of TAG.
The test system of data set [2] is bacteria. In words: Microcalorimetry activity of Vanco-Bis-TCO-Glycine. In kind it is cell-based. To be noted: tested up to 64 μg/ml (32 μM), without activating gel.
Data set [3] has as its system methicillin-resistant Staphylococcus Aureus SP231. Briefly: Rat knee joint MRSA infection study. Type of data set: in vivo. To be noted: rats; TAG (right knee) vs unmodified alginate control gel (left knee); prodrug via tail vein; 24 h; p<0.05. As to the method: Prodrug, TCO-Dapto was delivered systemically via tail vein. Mean±SEM of n=3, unpaired two-tailed Welch's t-test, *p<0.05.
Female Sprague-Dawley rats of age 6-8 weeks were approved for this study by the Institution of Animal Care and Use Committee (IACUC). Neutropenia was induced with cyclophosphamide intraperitoneally, 4 days (150 mg/kg) and 1 day (100 mg/kg) prior to gel injections. Animals received intra-articular injections of […] of 2.5% w/v of Cy5-modified alginate TAG (right knee) or unmodified alginate-Cy5 gel control (left knee) mixed with […] of 10^8 CFU/mL of methicillin-resistant Staphylococcus Aureus SP231 bacteria. After 2 h, animals received 61 μM of transcyclooctene-modified daptomycin-glycine (TCO-Dapto) via tail vein IV at standard dosing volume. After 24 h of gel injections, knee joints were harvested, homogenized and diluted in Dubelco's Phosphate buffered saline (D-PBS). Homogenized mixture was plated onto trypticase soy agar plates containing 5% sheep's blood duplicate. Bacterial colonies were enumerated following 20 h of incubation and bacterial load as LOG CFU/g of knee joint was determined. Statistical analysis was performed with Welch's two-tailed t-test and * denotes p<0.05. Error bars indicate standard error over means of n=3.

Data set [4] can be described thus: Aqueous solubility of Example 13B under different buffer conditions.
The mark [5] stands for this setting: Phosphate Buffer pH 6.5, final pH 6.1.
[6] abbreviates: Phosphate Buffer pH 7.5, final pH 5.4.

Converted amounts (≈) assume the structure as drawn. “And” between values parts separate entries of the source, which are not always exact repeats. Equal entries are not always repeated.

Take `CC(C)CC(C(=O)N[C@H]1C(=O)N[C@@H](CC(N)=O)C(=O)N[C@H]2C(=O)N[C@H]3C(=O)N[C@H](C(=O)N[C@H](C(=O)O)c4cc(O)cc(O)c4-c4cc3ccc4O)[C@H](O)c3ccc(c(Cl)c3)Oc3cc2cc(c3O[C@@H]2O[C@H](CO)[C@@H](O)[C@H](O)[C@H]2O[C@H]2C[C@](C)(NC(=O)O[C@@H]3/C=C/CC[C@](C)(C(=O)NCC(=O)O)CC3)[C@H](O)[C@H](C)O2)Oc2ccc(cc2Cl)[C@H]1O)N(C)C(=O)O[C@@H]1/C=C/CC[C@](C)(C(=O)NCC(=O)O)CC1` (stereo partly drawn) [Example 13C, Vanco-Bis-TCO-glycine Conjugate]: the “MHIC in the absence of TAG relative to presence of TAG” value in data set [1] came to 8 ×. Moreover, the “activity against bacteria as measured by microcalorimetry” value in data set [2] was “no activity”.
As for `CCCCCCCCCC(=O)NC(Cc1c[nH]c2ccccc12)C(=O)NC(CC(N)=O)C(=O)NC(CC(=O)O)C(=O)NC1C(=O)NCC(=O)NC(CCCNC(=O)OC2C=CCCC(C)(C(=O)NCC(=O)O)CC2)C(=O)NC(CC(=O)O)C(=O)NC(C)C(=O)NC(CC(=O)O)C(=O)NCC(=O)NC(CO)C(=O)NC(C(C)CC(=O)O)C(=O)NC(CC(=O)c2ccccc2N)C(=O)OC1C` (stereo not drawn) [Example 13B, Dapto-TCO-Glycine], the “bacterial loading of harvested knee joint” value in data set [3] is recorded as “reduces MRSA infection in vivo in a knee joint”. Also, the “Solubility, Mean” value was 0.15 mg/mL (≈ 0.0795 mM) in data set [4] (Buffer: Water, final pH 3.4); 10.9 mg/mL (≈ 5.77 mM) in data set [4] (setting [5]); 38.3 mg/mL (≈ 20.3 mM) in data set [4] (setting [6]). The “Solubility, Value” was 0.15 mg/mL and 0.14 mg/mL in data set [4] (Buffer: Water, final pH 3.4); 10.8 mg/mL and 10.9 mg/mL in data set [4] (setting [5]); 38.1 mg/mL and 38.3 mg/mL in data set [4] (setting [6]).
